In ChEMBL document CHEMBL1140940, “Pyrido[2,3-d]pyrimidin-5-ones: a novel class of antiinflammatory macrophage colony-stimulating factor-1 receptor inhibitors” (J Med Chem, 2009):
Calls of active or inactive are those of the source. No cut-off for these calls is given here.

What was measured:
Rattus norvegicus [1] = test: Toxicity in rat assessed as tolerability at 10 mg/kg; format: organism-based; parameters: dose 10 mg/kg; settings: in vivo
[2] = Metabolic stability in rat liver microsomes after 10 mins; format: ADME, Microsome; settings: read-out: Stability
[3] = Cmax in Sprague-Dawley rat at 10 mg/kg, po; format: ADME, organism-based; parameters: dose 10 mg/kg, route oral; settings: in vivo
[4] = Volume of distribution at steady state in monkey at 2 mg/kg, iv; format: ADME, organism-based, Macaca mulatta; parameters: dose 2 mg/kg, route intravenous; settings: rhesus monkey, in vivo, read-out: Vdss
[5] = Metabolic stability in monkey liver microsomes after 10 mins; format: ADME, Macaca mulatta, Microsome; settings: rhesus monkey, read-out: Stability
Rattus norvegicus [6] = test: Toxicity in rat assessed as tolerability at 40 mg/kg; format: organism-based; parameters: dose 40 mg/kg; settings: in vivo
Rattus norvegicus [7] = test: Inhibition of ankle swelling in Freund's complete adjuvant-induced Lewis rat arthritis model at 1 mg/kg, po twice daily administered on day 8 post adjuvant challenge measured on day 21 post adjuvant challenge relative to control; format: functional
Rattus norvegicus [8] = test: Antiinflammatory effect in Freund's complete adjuvant-induced Lewis rat arthritis model assessed as prevention of osteoclastogenesis at 3 mg/kg, po twice daily administered on day 8 post adjuvant challenge measured on day 21 post adjuvant challenge relative to control; format: functional, organism-based; parameters: dose 3 mg/kg
[9] = target: Proto-oncogene tyrosine-protein kinase Src (Homo sapiens, UniProt P12931); test: Inhibition of Src by fluorescence polarization competition immunoassay
Chain of Proto-oncogene tyrosine-protein kinase Src (P12931 2-536 limits assumed): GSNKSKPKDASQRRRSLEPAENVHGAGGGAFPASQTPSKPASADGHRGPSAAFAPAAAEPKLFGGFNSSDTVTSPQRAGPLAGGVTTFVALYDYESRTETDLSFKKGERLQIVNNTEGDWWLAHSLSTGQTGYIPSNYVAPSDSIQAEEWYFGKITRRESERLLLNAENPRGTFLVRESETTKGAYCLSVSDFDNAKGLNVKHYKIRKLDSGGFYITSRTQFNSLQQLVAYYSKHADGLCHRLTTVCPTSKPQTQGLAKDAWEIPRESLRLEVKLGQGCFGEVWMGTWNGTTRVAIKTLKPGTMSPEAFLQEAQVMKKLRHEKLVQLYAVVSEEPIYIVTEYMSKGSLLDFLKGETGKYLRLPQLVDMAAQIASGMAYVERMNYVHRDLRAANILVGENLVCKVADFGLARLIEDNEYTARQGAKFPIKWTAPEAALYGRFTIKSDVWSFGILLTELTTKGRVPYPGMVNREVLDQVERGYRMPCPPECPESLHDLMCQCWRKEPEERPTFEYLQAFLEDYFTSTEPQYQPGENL

[10] = Clearance in monkey at 2 mg/kg, iv; format: ADME, organism-based, Macaca mulatta; parameters: dose 2 mg/kg, route intravenous; settings: rhesus monkey, in vivo
Rattus norvegicus [11] = test: Reversal of ankle swelling in streptococcal cell wall-induced Lewis rat chronic arthritis model at 10 mg/kg, po twice daily administered on day 19 post streptococcal cell wall challenge; format: functional, organism-based; parameters: dose 10 mg/kg
[12] = target: High affinity nerve growth factor receptor (Homo sapiens, UniProt P04629); test: Inhibition of TrkA by fluorescence polarization competition immunoassay
Chain of High affinity nerve growth factor receptor (P04629 whole entry): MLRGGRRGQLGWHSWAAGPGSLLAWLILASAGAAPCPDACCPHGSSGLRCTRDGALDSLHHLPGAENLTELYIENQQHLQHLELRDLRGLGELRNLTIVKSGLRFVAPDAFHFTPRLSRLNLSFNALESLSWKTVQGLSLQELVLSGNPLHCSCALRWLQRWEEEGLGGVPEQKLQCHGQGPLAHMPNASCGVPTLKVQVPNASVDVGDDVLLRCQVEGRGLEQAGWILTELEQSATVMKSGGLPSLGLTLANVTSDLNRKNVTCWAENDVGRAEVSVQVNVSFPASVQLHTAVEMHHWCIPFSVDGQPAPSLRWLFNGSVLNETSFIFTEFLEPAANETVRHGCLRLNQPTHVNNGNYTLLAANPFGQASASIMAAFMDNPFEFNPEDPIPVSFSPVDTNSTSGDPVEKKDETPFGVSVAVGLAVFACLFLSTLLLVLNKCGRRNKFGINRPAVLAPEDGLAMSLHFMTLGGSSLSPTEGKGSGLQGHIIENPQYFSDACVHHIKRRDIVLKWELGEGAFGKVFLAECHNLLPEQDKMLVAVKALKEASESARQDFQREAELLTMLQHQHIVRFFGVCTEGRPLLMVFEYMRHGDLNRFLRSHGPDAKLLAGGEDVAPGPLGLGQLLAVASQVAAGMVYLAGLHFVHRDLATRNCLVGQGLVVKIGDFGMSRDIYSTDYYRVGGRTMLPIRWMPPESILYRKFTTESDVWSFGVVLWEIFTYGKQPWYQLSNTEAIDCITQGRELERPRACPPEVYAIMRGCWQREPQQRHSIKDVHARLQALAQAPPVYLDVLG

[13] = Metabolic stability in dog liver microsomes after 10 mins; format: ADME, Canis lupus familiaris, Microsome; settings: read-out: Stability
[14] = Volume of distribution at steady state in mouse at 2 mg/kg, iv; format: ADME, organism-based; parameters: dose 2 mg/kg, route intravenous; settings: in vivo, read-out: Vdss
[15] = Plasma concentration in Freund's complete adjuvant-induced Lewis rat arthritis model at […], po twice daily administered on day 8 post adjuvant challenge measured 7 days after last dose; format: ADME, organism-based; parameters: dose 0.33 mg/kg, route oral
Rattus norvegicus [16] = test: Inhibition of ankle swelling in Freund's complete adjuvant-induced Lewis rat arthritis model at 3 mg/kg, po twice daily administered on day 8 post adjuvant challenge measured on day 21 post adjuvant challenge relative to control; format: functional
[17] = Half life in mouse at 2 mg/kg, iv; format: ADME, organism-based; parameters: dose 2 mg/kg, route intravenous; settings: in vivo
Rattus norvegicus [18] = test: Antiinflammatory effect in Freund's complete adjuvant-induced Lewis rat arthritis model assessed as prevention of bone lesion development at tibial tarsal joint at 1 mg/kg, po twice daily administered on day 8 post adjuvant challenge measured on day 21 post adjuvant challenge by microradiography; format: functional, organism-based; parameters: dose 1 mg/kg
[19] = Oral bioavailability in mouse at 10 mg/kg; format: ADME, organism-based; settings: in vivo
Rattus norvegicus [20] = test: Inhibition of ankle swelling in Freund's complete adjuvant-induced Lewis rat arthritis model at 10 mg/kg, po twice daily administered on day 8 post adjuvant challenge measured on day 21 post adjuvant challenge relative to control; format: functional
[21] = Cmax in mouse at 10 mg/kg, po; format: ADME, organism-based; parameters: dose 10 mg/kg, route oral; settings: in vivo
[22] = Cmax in monkey at 10 mg/kg, po; format: ADME, organism-based, Macaca mulatta; parameters: dose 10 mg/kg, route oral; settings: rhesus monkey, in vivo
[23] = Volume of distribution at steady state in Sprague-Dawley rat at 2 mg/kg, iv; format: ADME, organism-based; parameters: dose 2 mg/kg, route intravenous; settings: in vivo, read-out: Vdss
Rattus norvegicus [24] = test: Inhibition of ankle swelling in Freund's complete adjuvant-induced Lewis rat arthritis model at […], po twice daily administered on day 8 post adjuvant challenge measured on day 21 post adjuvant challenge relative to control; format: functional; settings: dose 0.33 mg/kg
[25] = Plasma concentration CSF1-induced B6C3F1 mouse at 3 mg/kg, po after 6 hrs; format: ADME, organism-based; parameters: dose 3 mg/kg, route oral
[26] = target: Mast/stem cell growth factor receptor Kit (Homo sapiens, UniProt P10721); test: Inhibition of KIT by fluorescence polarization competition immunoassay
Chain of Mast/stem cell growth factor receptor Kit (P10721 whole entry): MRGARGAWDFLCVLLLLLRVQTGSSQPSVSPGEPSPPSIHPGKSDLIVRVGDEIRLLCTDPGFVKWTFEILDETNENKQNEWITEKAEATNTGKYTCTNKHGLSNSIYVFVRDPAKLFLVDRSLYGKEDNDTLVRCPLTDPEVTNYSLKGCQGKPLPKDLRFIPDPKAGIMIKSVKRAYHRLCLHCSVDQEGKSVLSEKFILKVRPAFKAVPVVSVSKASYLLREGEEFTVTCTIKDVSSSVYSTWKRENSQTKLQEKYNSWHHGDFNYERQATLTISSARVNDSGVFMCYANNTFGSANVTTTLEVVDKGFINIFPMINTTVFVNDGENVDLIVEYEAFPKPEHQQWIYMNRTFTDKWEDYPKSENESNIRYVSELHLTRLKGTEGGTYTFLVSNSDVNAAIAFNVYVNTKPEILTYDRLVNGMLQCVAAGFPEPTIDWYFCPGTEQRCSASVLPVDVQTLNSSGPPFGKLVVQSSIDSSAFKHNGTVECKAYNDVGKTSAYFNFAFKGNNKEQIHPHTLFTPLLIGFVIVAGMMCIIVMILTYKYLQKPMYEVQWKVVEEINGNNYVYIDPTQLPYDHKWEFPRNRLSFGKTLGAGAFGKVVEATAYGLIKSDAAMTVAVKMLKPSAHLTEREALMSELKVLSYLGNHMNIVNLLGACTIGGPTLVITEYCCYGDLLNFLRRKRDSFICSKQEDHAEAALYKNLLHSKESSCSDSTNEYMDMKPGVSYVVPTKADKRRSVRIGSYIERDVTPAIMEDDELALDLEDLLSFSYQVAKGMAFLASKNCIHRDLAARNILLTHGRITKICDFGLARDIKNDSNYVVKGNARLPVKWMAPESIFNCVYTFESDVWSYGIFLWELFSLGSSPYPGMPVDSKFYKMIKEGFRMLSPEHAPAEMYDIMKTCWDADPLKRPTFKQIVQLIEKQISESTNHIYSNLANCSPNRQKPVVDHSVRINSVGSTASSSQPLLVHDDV

[27] = Half life in Sprague-Dawley rat at 2 mg/kg, iv; format: ADME, organism-based; parameters: dose 2 mg/kg, route intravenous; settings: in vivo
Rattus norvegicus [28] = test: Antiinflammatory effect in Freund's complete adjuvant-induced Lewis rat arthritis model assessed as prevention of bone erosion at 3 mg/kg, po twice daily administered on day 8 post adjuvant challenge measured on day 21 post adjuvant challenge relative to control; format: functional, organism-based; parameters: dose 3 mg/kg
Rattus norvegicus [29] = test: Antiinflammatory effect in Freund's complete adjuvant-induced Lewis rat arthritis model assessed as prevention of osteoclastogenesis at 1 mg/kg, po twice daily administered on day 8 post adjuvant challenge measured on day 21 post adjuvant challenge relative to control; format: functional, organism-based; parameters: dose 1 mg/kg

CONC(=O)c1cn(-c2ccc3c(c2)CCC3)c2nc(Nc3ccc(C4CCN(C)CC4)cc3)ncc2c1=O
Activity (Rattus norvegicus [1]): Non-toxic | remaining at 10 min [2]: 96% | Cmax [3]: 1600 nM | Vd [4]: 22.6 L/kg | remaining at 10 min [5]: 14% | Activity (Rattus norvegicus [6]): Non-toxic | inhibition in vivo at 1 mg/kg (Rattus norvegicus [7]): 2% | Activity (Rattus norvegicus [8]): Active | IC50 [9]: 1400 nM | clearance [10]: 48.7 mL/min/kg | Activity (Rattus norvegicus [11]): Active | IC50 [12]: 500 nM | remaining at 10 min [13]: 51% | Vd [14]: 3.6 L/kg | concentration at 168 h [15]: 14 nM | inhibition in vivo at 3 mg/kg (Rattus norvegicus [16]): 8% | half-life [17]: 1.8 h | Activity (Rattus norvegicus [18]): Active | bioavailability [19]: 51% | inhibition in vivo at 10 mg/kg (Rattus norvegicus [20]): 17% | Cmax [21]: 1600 nM | Cmax [22]: 60 nM | Vd [23]: 4.3 L/kg | inhibition in vivo at […] (Rattus norvegicus [24]): 7% | concentration at 6 h [25]: 290 nM | IC50 [26]: 6 nM | half-life [27]: 4.6 h | Activity (Rattus norvegicus [28]): Active | Activity (Rattus norvegicus [29]): Active
